Where a SMILES comes first, the peptide text is derived from it.
Each molecule was assayed against HLA B*0801 (Homo sapiens, UniProt P01889, A93T/A95T/D138N/E176V/E187T/K202T/Q94N/R180D/S35A/V36M/Y33D/Y91F) (assay: biochemical).
Type: binding

Row | SMILES | IC50 [nM]
1 | CC[C@H](C)[C@H](NC(=O)[C@@H](NC(=O)[C@H](Cc1ccccc1)NC(=O)[C@H](CCCCN)NC(=O)[C@H](CCC(N)=O)NC(=O)[C@H](CCSC)NC(=O)[C@H](CC(=O)O)NC(=O)[C@@H](N)CO)[C@@H](C)O)C(=O)N[C@@H](CC(C)C)C(=O)O [3102.0699] (H-SDMQKFTIL-OH) | 41
2 | CC(C)C[C@H](NC(=O)[C@@H](N)CC(N)=O)C(=O)N[C@@H](CCCNC(=N)N)C(=O)N[C@@H](CS)C(=O)N[C@@H](Cc1c[nH]cn1)C(=O)N[C@@H](CO)C(=O)N[C@@H](C)C(=O)N[C@@H](Cc1c[nH]cn1)C(=O)N[C@H](C(=O)O)C(C)C [3102.0700] (H-NLRCHSAHV-OH) | 1.2
3 | CC[C@H](C)[C@H](NC(=O)[C@H](CC(C)C)NC(=O)[C@H](CCSC)NC(=O)[C@H](CCCNC(=N)N)NC(=O)[C@@H](NC(=O)[C@H](Cc1ccccc1)NC(=O)[C@@H](NC(=O)[C@@H](N)CO)[C@@H](C)CC)[C@@H](C)CC)C(=O)N[C@@H](CC(C)C)C(=O)O [3102.0701] (H-SIFIRMLIL-OH) | 10
4 | CC[C@H](C)[C@H](NC(=O)[C@H](CC(C)C)NC(=O)[C@@H](N)CCSC)C(=O)N[C@@H](CC(C)C)C(=O)N[C@@H](CC(N)=O)C(=O)N[C@@H](Cc1ccccc1)C(=O)N[C@@H](CS)C(=O)N[C@@H](CCCCN)C(=O)N[C@@H](CC(C)C)C(=O)O [3102.0702] (H-MLILNFCKL-OH) | 3.9
5 | CSCC[C@H](NC(=O)[C@@H]1CCCN1C(=O)[C@@H](N)CC(C)C)C(=O)N[C@@H](CC(C)C)C(=O)N[C@@H](Cc1ccc(O)cc1)C(=O)N[C@@H](Cc1ccccc1)C(=O)N[C@@H](CC(C)C)C(=O)N[C@@H](Cc1ccc(O)cc1)C(=O)N[C@H](C(=O)O)C(C)C [3102.0703] (H-LPMLYFLYV-OH) | 2.5
6 | CC[C@H](C)[C@H](NC(=O)[C@@H](NC(=O)[C@H](CCC(N)=O)NC(=O)[C@H](CCCNC(=N)N)NC(=O)[C@H](CCCCN)NC(=O)[C@H](Cc1ccccc1)NC(=O)[C@H](CO)NC(=O)[C@@H]1CCCN1C(=O)[C@@H](N)CC(N)=O)[C@@H](C)CC)C(=O)O [3102.0704] (H-NPSFKRQII-OH) | 20
7 | CC[C@H](C)[C@H](NC(=O)[C@H](CC(=O)O)NC(=O)[C@H](CC(C)C)NC(=O)[C@H](CCCCN)NC(=O)[C@H](CCCCN)NC(=O)[C@H](CCCNC(=N)N)NC(=O)[C@H](CCCCN)NC(=O)[C@@H](NC(=O)[C@@H](N)Cc1ccccc1)C(C)C)C(=O)O [3102.0707] (H-FVKRKKLDI-OH) | 3
8 | CC[C@H](C)[C@H](NC(=O)[C@H](CCCNC(=N)N)NC(=O)[C@@H](N)Cc1ccc(O)cc1)C(=O)N[C@@H](C)C(=O)N[C@@H](CCCCN)C(=O)N[C@@H](Cc1ccccc1)C(=O)N[C@@H](CC(C)C)C(=O)N[C@@H](Cc1ccccc1)C(=O)N[C@@H](CCSC)C(=O)O [3102.0708] (H-YRIAKFLFM-OH) | 17
9 | CC[C@H](C)[C@H](NC(=O)[C@H](CCCCN)NC(=O)[C@@H](NC(=O)[C@H](CCCNC(=N)N)NC(=O)[C@H](CC(C)C)NC(=O)[C@@H](N)C(C)C)[C@@H](C)O)C(=O)N[C@H](C(=O)N[C@@H](CO)C(=O)N[C@@H](CC(C)C)C(=O)O)[C@@H](C)O [3102.0709] (H-VLRTKITSL-OH) | 0.92
10 | CC(C)C[C@H](NC(=O)[C@@H](NC(=O)[C@H](CCCNC(=N)N)NC(=O)[C@H](Cc1ccccc1)NC(=O)[C@H](CCCCN)NC(=O)[C@H](CO)NC(=O)[C@H](CC(C)C)NC(=O)[C@H](CCC(N)=O)NC(=O)[C@@H](N)CC(=O)O)[C@@H](C)O)C(=O)O [3102.0710] (H-DQLSKFRTL-OH) | 7.4
11 | CC[C@H](C)[C@H](NC(=O)[C@H](CC(=O)O)NC(=O)[C@H](CC(C)C)NC(=O)[C@@H]1CCCN1C(=O)[C@H](CCCCN)NC(=O)[C@H](CC(C)C)NC(=O)[C@H](CCCNC(=N)N)NC(=O)[C@H](C)NC(=O)[C@@H](N)CC(N)=O)C(=O)O [3102.0711] (H-NARLKPLDI-OH) | 0.81
12 | CC(C)C[C@H](NC(=O)[C@@H](N)CCC(=O)O)C(=O)N[C@@H](CCCCN)C(=O)N[C@@H](CCC(=O)O)C(=O)N[C@@H](CCCCN)C(=O)N[C@@H](CO)C(=O)N[C@H](C(=O)N[C@@H](CCCCN)C(=O)N[C@@H](Cc1ccccc1)C(=O)O)C(C)C [3102.0712] (H-ELKEKSVKF-OH) | 3.2
13 | CC[C@H](C)[C@H](NC(=O)[C@H](CO)NC(=O)[C@H](CCSC)NC(=O)[C@H](CC(C)C)NC(=O)[C@H](CCCNC(=N)N)NC(=O)[C@H](CC(N)=O)NC(=O)[C@H](CO)NC(=O)[C@H](CC(N)=O)NC(=O)[C@@H](N)CO)C(=O)O [3102.0713] (H-SNSNRLMSI-OH) | 10
14 | CSCC[C@H](NC(=O)[C@H](Cc1ccccc1)NC(=O)[C@@H](N)CC(C)C)C(=O)N[C@@H](CO)C(=O)N[C@@H](Cc1c[nH]cn1)C(=O)N[C@H](C(=O)N[C@@H](CCCCN)C(=O)N[C@@H](CO)C(=O)N[C@H](C(=O)O)C(C)C)C(C)C [3102.0716] (H-LFMSHVKSV-OH) | 3.1
15 | CC[C@H](C)[C@H](NC(=O)[C@H](C)NC(=O)[C@H](CO)NC(=O)[C@H](Cc1ccccc1)NC(=O)[C@H](CCCCN)NC(=O)[C@H](CCCCN)NC(=O)[C@H](CO)NC(=O)[C@@H](NC(=O)[C@@H](N)CC(N)=O)[C@@H](C)CC)C(=O)O [3102.0717] (H-NISKKFSAI-OH) | 2.8
16 | CSCC[C@H](N)C(=O)N[C@@H](Cc1ccccc1)C(=O)NCC(=O)N[C@H](C(=O)N[C@@H](CCCNC(=N)N)C(=O)N[C@@H](CCCCN)C(=O)N[C@@H](CC(N)=O)C(=O)N[C@@H](CO)C(=O)N[C@@H](Cc1ccccc1)C(=O)O)[C@@H](C)O [3102.0718] (H-MFGTRKNSF-OH) | 2
17 | CC[C@H](C)[C@H](NC(=O)[C@H](CCCCN)NC(=O)[C@@H]1CCCN1C(=O)[C@@H](N)CCC(=O)O)C(=O)N[C@@H](CO)C(=O)N[C@@H](CC(C)C)C(=O)N[C@@H](CC(C)C)C(=O)N1CCC[C@H]1C(=O)N[C@@H](CC(C)C)C(=O)O [3102.0719] (H-EPKISLLPL-OH) | 8.5
18 | CC[C@H](C)[C@H](NC(=O)[C@H](CC(N)=O)NC(=O)[C@H](CC(C)C)NC(=O)[C@H](CCCCN)NC(=O)[C@H](CC(N)=O)NC(=O)[C@H](CCSC)NC(=O)[C@@H](NC(=O)[C@@H](N)CC(N)=O)[C@@H](C)CC)C(=O)N[C@H](C(=O)O)C(C)C [3102.0721] (H-NIMNKLNIV-OH) | 5.7
19 | CC(C)C[C@H](NC(=O)[C@H](CCCNC(=N)N)NC(=O)[C@H](C)NC(=O)[C@H](CC(N)=O)NC(=O)[C@H](CCCNC(=N)N)NC(=O)[C@H](C)NC(=O)CNC(=O)[C@@H]1CCCN1C(=O)[C@@H](N)CC(N)=O)C(=O)O [3102.0722] (H-NPGARNARL-OH) | 6.2
20 | CC[C@H](C)[C@H](NC(=O)[C@H](CCC(=O)O)NC(=O)[C@H](CCSC)NC(=O)[C@H](CCCNC(=N)N)NC(=O)[C@@H](N)CC(N)=O)C(=O)N[C@@H](Cc1ccccc1)C(=O)N[C@@H](CC(C)C)C(=O)N[C@H](C(=O)N[C@@H](CC(C)C)C(=O)O)C(C)C [3102.0723] (H-NRMEIFLVL-OH) | 4.9
21 | CSCC[C@H](NC(=O)[C@H](CC(C)C)NC(=O)[C@@H](N)CCSC)C(=O)N[C@@H](CCC(=O)O)C(=O)N[C@H](C(=O)N[C@@H](Cc1ccccc1)C(=O)N1CCC[C@H]1C(=O)N[C@@H](CCC(N)=O)C(=O)N[C@@H](CC(C)C)C(=O)O)C(C)C [3102.0725] (H-MLMEVFPQL-OH) | 13
22 | CC[C@H](C)[C@H](NC(=O)[C@H](CC(C)C)NC(=O)[C@H](Cc1c[nH]cn1)NC(=O)[C@H](CCCCN)NC(=O)[C@H](Cc1ccc(O)cc1)NC(=O)[C@@H](NC(=O)[C@@H]1CCCN1C(=O)[C@@H](N)CCSC)[C@@H](C)O)C(=O)N[C@@H](CCSC)C(=O)O [3102.0727] (H-MPTYKHLIM-OH) | 0.13
23 | CSCC[C@H](NC(=O)[C@H](Cc1ccccc1)NC(=O)CN)C(=O)N[C@@H](CCCNC(=N)N)C(=O)N[C@@H](Cc1ccccc1)C(=O)N[C@@H](Cc1ccccc1)C(=O)N[C@@H](CCC(N)=O)C(=O)N[C@@H](CC(C)C)C(=O)N[C@@H](CC(C)C)C(=O)O [3102.0728] (H-GFMRFFQLL-OH) | 2.4
24 | CC(C)C[C@H](NC(=O)[C@@H](NC(=O)[C@@H](NC(=O)[C@H](CC(N)=O)NC(=O)[C@H](Cc1ccccc1)NC(=O)[C@H](CC(C)C)NC(=O)[C@H](CCCCN)NC(=O)[C@H](CC(C)C)NC(=O)[C@@H](N)CCC(=O)O)C(C)C)[C@@H](C)O)C(=O)O [3102.0729] (H-ELKLFNVTL-OH) | 4.7
25 | CC[C@H](C)[C@H](NC(=O)[C@H](CC(C)C)NC(=O)[C@@H](N)CO)C(=O)N1CCC[C@H]1C(=O)N[C@@H](CCCNC(=N)N)C(=O)N[C@@H](CC(C)C)C(=O)N[C@H](C(=O)N[C@@H](CC(=O)O)C(=O)N[C@@H](Cc1ccccc1)C(=O)O)C(C)C [3102.0730] (H-SLIPRLVDF-OH) | 13
26 | CSCC[C@H](NC(=O)[C@H](Cc1ccccc1)NC(=O)CNC(=O)[C@@H](N)[C@@H](C)O)C(=O)N[C@@H](CCCNC(=N)N)C(=O)N[C@@H](Cc1ccccc1)C(=O)N[C@@H](Cc1ccccc1)C(=O)N[C@@H](CCC(N)=O)C(=O)N[C@@H](CC(C)C)C(=O)O [3102.0731] (H-TGFMRFFQL-OH) | 0.97
27 | CC[C@H](C)[C@H](NC(=O)[C@H](CCC(N)=O)NC(=O)[C@H](CCC(=O)O)NC(=O)[C@H](CCC(N)=O)NC(=O)[C@H](CCCNC(=N)N)NC(=O)[C@H](CCCNC(=N)N)NC(=O)[C@H](CCSC)NC(=O)CNC(=O)[C@@H](N)CO)C(=O)O [3102.0733] (H-SGMRRQEQI-OH) | 17
28 | CC(C)C[C@H](NC(=O)[C@H](CO)NC(=O)CNC(=O)[C@@H]1CCCN1C(=O)[C@H](CCCNC(=N)N)NC(=O)[C@H](Cc1ccccc1)NC(=O)[C@H](CCCCN)NC(=O)[C@H](Cc1ccccc1)NC(=O)[C@@H](N)CO)C(=O)O [3102.0734] (H-SFKFRPGSL-OH) | 3
29 | CC[C@H](C)[C@H](NC(=O)[C@H](CC(=O)O)NC(=O)[C@H](CC(N)=O)NC(=O)[C@@H](NC(=O)[C@H](CCCCN)NC(=O)[C@@H](NC(=O)[C@H](CCCCN)NC(=O)[C@@H]1CCCN1C(=O)[C@@H](N)CCCNC(=N)N)[C@@H](C)CC)[C@@H](C)O)C(=O)O [3102.0737] (H-RPKIKTNDI-OH) | 2.1
30 | CSCC[C@H](NC(=O)[C@H](CCCCN)NC(=O)[C@@H](N)CCC(=O)O)C(=O)N[C@@H](CCCNC(=N)N)C(=O)N[C@@H](CCCNC(=N)N)C(=O)N[C@@H](CCC(=O)O)C(=O)N[C@@H](CCCNC(=N)N)C(=O)N[C@@H](C)C(=O)N[C@@H](C)C(=O)O [3102.0739] (H-EKMRRERAA-OH) | 1.8

From article PMC2248166, “Quantitative peptide binding motifs for 19 human and mouse MHC class I molecules derived using positional scanning combinatorial peptide libraries” (Immunome Research, 2008)
